Measured values taken from patent publication US9109004B2, “Progesterone receptor antagonists” (Bayer Intellectual Property GmbH, priority 2010, dated 2015).

The compounds below were run against T1, human progesterone receptor A (Homo sapiens, UniProt P06401) (assay: Progesterone-receptor-antagonistic action in stably transfected SK-N-MC cells, MTV-LUC reporter (PR-A)). Conditions: antagonistic potency vs 0.1 nmol/l promegestone, 24 hours, luciferase.
T1 construct: expressed in transfected cells; host or cells: SK-N-MC human neuroblastoma cells, stably transfected
T1 sequence (P06401 1-769 isoform P06401-2): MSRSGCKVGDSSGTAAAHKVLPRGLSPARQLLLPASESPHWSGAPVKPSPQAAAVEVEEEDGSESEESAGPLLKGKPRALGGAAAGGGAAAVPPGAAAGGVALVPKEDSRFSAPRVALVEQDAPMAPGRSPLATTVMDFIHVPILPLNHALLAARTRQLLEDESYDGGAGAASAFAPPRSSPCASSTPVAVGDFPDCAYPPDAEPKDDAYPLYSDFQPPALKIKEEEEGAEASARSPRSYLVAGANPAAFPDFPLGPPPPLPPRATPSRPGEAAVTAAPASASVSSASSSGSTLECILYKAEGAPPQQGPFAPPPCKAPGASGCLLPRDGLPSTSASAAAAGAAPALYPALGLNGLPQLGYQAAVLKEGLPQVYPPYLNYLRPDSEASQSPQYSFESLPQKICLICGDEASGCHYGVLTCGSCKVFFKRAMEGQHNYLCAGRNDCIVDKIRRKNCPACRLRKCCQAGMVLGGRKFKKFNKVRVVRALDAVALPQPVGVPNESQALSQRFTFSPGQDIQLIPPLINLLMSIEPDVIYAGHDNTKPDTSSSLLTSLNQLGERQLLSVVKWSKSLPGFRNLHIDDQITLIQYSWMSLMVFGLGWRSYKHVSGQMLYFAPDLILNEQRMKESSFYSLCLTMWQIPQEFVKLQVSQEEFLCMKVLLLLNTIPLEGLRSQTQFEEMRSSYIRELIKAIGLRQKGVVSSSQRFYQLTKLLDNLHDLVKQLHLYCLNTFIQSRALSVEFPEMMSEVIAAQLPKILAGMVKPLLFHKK
Type: cell-based
Procedure, shortened: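 SK-N-MC neuroblastoma cells stably expressing human PR-B or PR-A plus MMTV-LUC reporter, treated 24 h with 0.1 nmol/l promegestone plus test compound at 0.01 nmol/l–1 μmol/l. Luciferase in lysates read as RLU; values as % efficacy and IC50.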

Row | IC50 | Structure (SMILES)
1 | 0.21 nM | CC(C)(NC(=O)c1ccc([C@H]2C[C@@]3(C)[C@@H](CC[C@@]3(O)C(F)(F)C(F)(F)F)[C@@H]3CCC4=CC(=O)CCC4=C32)cc1)c1ccccc1 [Example 17, 4-[(11β,17β)-17-hydroxy-3-oxo-17-(pentafluoroethyl)estra-4,9-dien-11-yl]-N-(2-phenylpropan-2-yl)benzamide]
2 | 2.7 nM | C[C@]12C[C@H](c3ccc(C(=O)N4CCN(C(=O)c5ccccc5)CC4)cc3)C3=C4CCC(=O)C=C4CC[C@H]3[C@@H]1CC[C@@]2(O)C(F)(F)C(F)(F)F [Example 65, (11β,17β)-11-{4-[(4-benzoylpiperazin-1-yl)carbonyl]phenyl}-17-hydroxy-17-(pentafluoroethyl)estra-4,9-dien-3-one]
3 | 38 nM | C[C@]12C[C@H](c3ccc(C(=O)N4CCCC4)cc3)C3=C4CCC(=O)C=C4CC[C@H]3[C@@H]1CC[C@@]2(O)C(F)(F)C(F)(F)F [Example 15, (11β,17β)-17-hydroxy-17-(pentafluoroethyl)-11-[4-(pyrrolidin-1-ylcarbonyl)phenyl]estra-4,9-dien-3-one]
4 | 6.3 nM | C[C@]12C[C@H](c3ccc(C(=O)N4CCN(S(C)(=O)=O)CC4)cc3)C3=C4CCC(=O)C=C4CC[C@H]3[C@@H]1CC[C@@]2(O)C(F)(F)C(F)(F)F [Example 67, (11β,17β)-17-hydroxy-11-(4-{[4-(methylsulphonyl)piperazin-1-yl]carbonyl}phenyl)-17-(pentafluoroethyl)estra-4,9-dien-3-one]
5 | 25 nM | C[C@]12C[C@H](c3ccc(C(=O)N4CCN(CCc5ccccc5)CC4)cc3)C3=C4CCC(=O)C=C4CC[C@H]3[C@@H]1CC[C@@]2(O)C(F)(F)C(F)(F)F [Example 44, (11β,17β)-17-hydroxy-17-(pentafluoroethyl)-11-(4-{[4-(2-phenylethyl)piperazin-1-yl]carbonyl}phenyl)estra-4,9-dien-3-one]
6 | 0.71 nM | CC(=O)Nc1ccc(NC(=O)c2ccc([C@H]3C[C@@]4(C)[C@@H](CC[C@@]4(O)C(F)(F)C(F)(F)F)[C@@H]4CCC5=CC(=O)CCC5=C43)cc2)cc1 [Example 52, N-(4-acetamidophenyl)-4-[(11β,17β)-17-hydroxy-3-oxo-17-(pentafluoroethyl)estra-4,9-dien-11-yl]benzamide]
7 | 7.6 nM | C[C@]12C[C@H](c3ccc(C(=O)N4CCN(Cc5ccncc5)CC4)cc3)C3=C4CCC(=O)C=C4CC[C@H]3[C@@H]1CC[C@@]2(O)C(F)(F)C(F)(F)F [Example 49, (11β,17β)-17-hydroxy-17-(pentafluoroethyl)-11-(4-{[4-(pyridin-4-ylmethyl)piperazin-1-yl]carbonyl}phenyl)estra-4,9-dien-3-one]
8 | 26 nM | C[C@]12C[C@H](c3ccc(C(=O)N4CCN(c5ccncc5)CC4)cc3)C3=C4CCC(=O)C=C4CC[C@H]3[C@@H]1CC[C@@]2(O)C(F)(F)C(F)(F)F [Example 45, (11β,17β)-17-hydroxy-17-(pentafluoroethyl)-11-(4-{[4-(pyridin-4-yl)piperazin-1-yl]carbonyl}phenyl)estra-4,9-dien-3-one]
9 | 35 nM | CN(C)C(=O)N1CCN(C(=O)c2ccc([C@H]3C[C@@]4(C)[C@@H](CC[C@@]4(O)C(F)(F)C(F)(F)F)[C@@H]4CCC5=CC(=O)CCC5=C43)cc2)CC1 [Example 66, 4-{4-[(11β,17β)-17-hydroxy-3-oxo-17-(pentafluoroethyl)estra-4,9-dien-11-yl]benzoyl}-N,N-dimethylpiperazine-1-carboxamide]
10 | 4.3 nM | C[C@]12C[C@H](c3ccc(C(=O)N4CCN(c5cnccn5)CC4)cc3)C3=C4CCC(=O)C=C4CC[C@H]3[C@@H]1CC[C@@]2(O)C(F)(F)C(F)(F)F [Example 46, (11β,17β)-17-hydroxy-17-(pentafluoroethyl)-11-(4-{[4-(pyrazin-2-yl)piperazin-1-yl]carbonyl}phenyl)estra-4,9-dien-3-one]
